Source: PMC9127750, “Structure-based design of CDC42 effector interaction inhibitors for the treatment of cancer” (Cell reports, 2022)
Values joined by “and” are separate entries in the source; they are usually repeats but may differ in a detail not shown here. Equal entries are not always repeated.

Test system: WM3248 melanoma cells, 486 antibodies
Assay: Reverse phase protein arrays (RPPA)
Assay type: cell-based, Human
Source text: Pellets were snap frozen in liquid nitrogen and shipped to MD Anderson Cancer Center core RPPA facility for RPPA analysis (Table S5). Three biological replicates for each sample were generated.
Nomenclatures on the RPPA heatmaps: name_of_antibody.species_of_antibody.status_of_antibody. V - antibody validated; C - validation of antibody in progress; Q - antibody nonspecific; E – under evaluation; antibodies raised in M - mouse, G - goat, R - rabbit, or T - rat.

[1] = level 20 normalized to 0, single replicates

CN(C)c1cccc(Nc2cc(-c3ccccc3)nc(C3CCNCC3)n2)c1 [ARN22089, N1,N1-dimethyl-N3-(6-phenyl-2-(piperidin-4-yl)pyrimidin-4-yl)benzene-1,3-diamine]
VHL.EPPK1.M.C Norm_20_1 to Norm_20_3 [1]: 0.500 and 1.345 and 0.800 | VHL.R.C Norm_20_1 to Norm_20_3 [1]: 0.916 and 0.962 and 0.841 | Vinculin.M.V Norm_20_1 to Norm_20_3 [1]: 0.883 and 0.898 and 1.015 | WIPI1.R.C Norm_20_1 to Norm_20_3 [1]: 1.294 and 1.483 and 1.388 | WIPI2.R.C Norm_20_1 to Norm_20_3 [1]: 1.222 and 0.891 and 1.265 | WTAP.R.V Norm_20_1 to Norm_20_3 [1]: 1.313 and 1.590 and 0.930 | Wee1.R.C Norm_20_1 to Norm_20_3 [1]: 0.789 and 0.790 and 1.159 | Wee1_pS642.R.C Norm_20_1 to Norm_20_3 [1]: 0.904 and 0.831 and 1.081 | XBP.1.G.C Norm_20_1 to Norm_20_3 [1]: 0.929 and 1.289 | XIAP.R.C Norm_20_1 to Norm_20_3 [1]: 0.985 and 0.834 and 1.059 | XPA.M.V Norm_20_1 to Norm_20_3 [1]: 0.800 and 0.980 and 0.934 | XPF.R.C Norm_20_1 to Norm_20_3 [1]: 0.837 and 0.882 | XRCC1.R.C Norm_20_1 to Norm_20_3 [1]: 0.881 and 1.133 | YAP.R.C Norm_20_1 to Norm_20_3 [1]: 0.917 and 1.135 and 0.817 | YAP_pS127.R.V Norm_20_1 to Norm_20_3 [1]: 1.228 and 0.736 | YB1_pS102.R.V Norm_20_1 to Norm_20_3 [1]: 0.867 | YES1.R.V Norm_20_1 to Norm_20_3 [1]: 0.976 and 0.995 | YTHDF2.R.V Norm_20_1 to Norm_20_3 [1]: 1.165 and 1.218 and 1.246 | YTHDF3.R.C Norm_20_1 to Norm_20_3 [1]: 1.003 and 1.082 and 1.010 | ZAP.70.R.V Norm_20_1 to Norm_20_3 [1]: 0.955 and 0.894 and 0.817 | ZEB1.R.V Norm_20_1 to Norm_20_3 [1]: 0.925 and 1.022 and 0.936 | HLA.DQA1.R.V Norm_20 Average (level 20 vs 0): 0.977 | HMHA1.R.V Norm_20 Average (level 20 vs 0): 1.016 | HNRNPK.R.V Norm_20 Average (level 20 vs 0): 0.991 | HSP27.M.C Norm_20 Average (level 20 vs 0): 0.811 | HSP27_pS82.R.V Norm_20 Average (level 20 vs 0): 0.961 | HSP60.R.V Norm_20 Average (level 20 vs 0): 0.996 | HSP70.R.C Norm_20 Average (level 20 vs 0): 1.202 | Hexokinase.I.R.C Norm_20 Average (level 20 vs 0): 1.201 | Hif.1αR.C Norm_20 Average (level 20 vs 0): 1.051 | Histone.H3.R.V Norm_20 Average (level 20 vs 0): 5.937 | Histone.H3_pS10.R.V Norm_20 Average (level 20 vs 0): 2.467 | IDO.R.C Norm_20 Average (level 20 vs 0): 0.964 | IGF1R_pY1135_Y1136.R.V Norm_20 Average (level 20 vs 0): 0.962 | IGFBP3.M.V Norm_20 Average (level 20 vs 0): 0.905 | IL.6.R.C Norm_20 Average (level 20 vs 0): 0.971 | IMP3.R.C Norm_20 Average (level 20 vs 0): 0.967 | INPP4b.R.C Norm_20 Average (level 20 vs 0): 0.976 | IRF.1.R.V Norm_20 Average (level 20 vs 0): 0.958 | IRF.3.R.V Norm_20 Average (level 20 vs 0): 0.882 | IRS1.R.V Norm_20 Average (level 20 vs 0): 1.050 | IRS2.R.C Norm_20 Average (level 20 vs 0): 1.223 | JAB1.M.C Norm_20 Average (level 20 vs 0): 0.970 | JNK2.R.V Norm_20 Average (level 20 vs 0): 1.099 | JNK_pT183_Y185.R.C Norm_20 Average (level 20 vs 0): 1.003 | Jagged1.R.V Norm_20 Average (level 20 vs 0): 1.028 | KAP1.R.V Norm_20 Average (level 20 vs 0): 1.259 | KEAP1.R.V Norm_20 Average (level 20 vs 0): 1.000 | LAD1.R.V Norm_20 Average (level 20 vs 0): 0.964 | LC3A.B.R.C Norm_20 Average (level 20 vs 0): 1.242 | LCN2.R.V Norm_20 Average (level 20 vs 0): 1.622 | LDHA.R.C Norm_20 Average (level 20 vs 0): 1.558 | LRP6_pS1490.R.V Norm_20 Average (level 20 vs 0): 1.024 | Lck.R.V Norm_20 Average (level 20 vs 0): 1.304 | Lyn.R.V Norm_20 Average (level 20 vs 0): 1.028 | MACC1.R.V Norm_20 Average (level 20 vs 0): 0.935 | MAPK_pT202_Y204.R.C Norm_20 Average (level 20 vs 0): 0.567 | MCT4.R.V Norm_20 Average (level 20 vs 0): 0.993 | MDM2_pS166.R.V Norm_20 Average (level 20 vs 0): 1.398 | MEK1.R.V Norm_20 Average (level 20 vs 0): 1.549 | MEK1_pS217_S221.R.V Norm_20 Average (level 20 vs 0): 0.977 | MEK2.R.V Norm_20 Average (level 20 vs 0): 1.030 | MERIT40.R.C Norm_20 Average (level 20 vs 0): 0.913 | MERIT40_pS29.R.V Norm_20 Average (level 20 vs 0): 1.026 | METTL3.R.V Norm_20 Average (level 20 vs 0): 1.246 | MIF.R.C Norm_20 Average (level 20 vs 0): 0.892 | MIG6.R.V Norm_20 Average (level 20 vs 0): 0.907 | MLH1.M.V Norm_20 Average (level 20 vs 0): 0.889 | MLKL.R.V Norm_20 Average (level 20 vs 0): 0.854 | MMP2.R.V Norm_20 Average (level 20 vs 0): 0.934 | MMP14.R.V Norm_20 Average (level 20 vs 0): 1.655 | MR1.M.C Norm_20 Average (level 20 vs 0): 0.987 | MRAP.R.C Norm_20 Average (level 20 vs 0): 1.110 | MSH2.R.C Norm_20 Average (level 20 vs 0): 0.939 | MSH6.R.C Norm_20 Average (level 20 vs 0): 1.329 | MSI2.R.C Norm_20 Average (level 20 vs 0): 1.187 | MTCO1.M.V Norm_20 Average (level 20 vs 0): 1.135 | MTSS1.M.C Norm_20 Average (level 20 vs 0): 0.937 | Mcl.1.R.V Norm_20 Average (level 20 vs 0): 0.754 | MelanA.R.C Norm_20 Average (level 20 vs 0): 1.025 | Melanoma.gp100.R.C Norm_20 Average (level 20 vs 0): 1.012
